According to patent publication US7462605B2, “Phosphoramidate compounds and methods of use” (Celmed Oncology (USA), Inc., priority 2002, dated 2008):

Columns and labels:
rHuTS = biological target: T1, rHuTS (Homo sapiens, UniProt P04818); experiment: Inhibition of rHuTS reactions by Tomudex and 5-FdUMP (initial rates); type: biochemical; conditions: for initial rate of rHuTS reaction with inhibitor / rate as % of No Inhibitor: inhibitor 500 nM
T1 construct: His tag (from pET-28a(+)) (N); made in house; host or cells: E. coli BL21 (DE3)/pET-28a(+)
T1 sequence (P04818 whole entry): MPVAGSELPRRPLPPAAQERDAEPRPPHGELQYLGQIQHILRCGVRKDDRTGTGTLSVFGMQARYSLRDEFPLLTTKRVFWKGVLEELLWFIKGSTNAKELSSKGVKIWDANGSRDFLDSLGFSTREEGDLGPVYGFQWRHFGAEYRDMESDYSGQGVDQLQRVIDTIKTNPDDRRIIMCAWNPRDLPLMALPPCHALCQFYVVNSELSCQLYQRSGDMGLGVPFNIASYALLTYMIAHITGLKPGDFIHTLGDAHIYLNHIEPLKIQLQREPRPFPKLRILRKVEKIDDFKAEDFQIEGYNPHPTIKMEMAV
Protocol: (§1) Enzyme Assays and Kinetic Measurements. Thymidylate synthase assays were done in 96 well Costar UV transparent plates in a reaction volume of 200 μL, consisting of 40 mM Tris pH 7.5, 25 mM MgCl2, 1 mM EDTA, 25 mM-mercaptoethanol, 125M dUMP, and 65 μM N5, N10-methylene tetrahydrofolate indicated. Tetrahydrofolate stock solutions were prepared by dissolving tetrahydrofolic acid (Sigma) directly into 0.2M Tris pH 7.5, 0.5 M-mercaptoethanol; stock solutions were stored at −80° C. N5, N10-methylene tetrahydrofolate was prepared by adding 12 μl of 3.8% formaldehyde to 1 ml of a 0.65 mM solution of tetrahydrofolate and incubating for 5 minutes at 37° C. N5, N10-methylene tetrahydrofolate was kept on ice and used within 2 hours of preparation.
Conversion of BVdUMP to fluorescent product(s) by thymidylate synthase was measured in 200 μl thymidylate synthase reactions containing 125M BVdUMP in 96 well Dynex Microfluor Black “U” bottom microtiter plates using an excitation wavelength of 340 nm and emission wavelength of 595 nm. Fluorescence was measured with a Tecan Spectrafluor Plus fluorimeter.

Lactobacillus casei TS = biological target: T2, Lactobacillus casei TS (Lacticaseibacillus casei, UniProt P00469); conditions: cited from earlier work
T2 sequence (P00469 1-316): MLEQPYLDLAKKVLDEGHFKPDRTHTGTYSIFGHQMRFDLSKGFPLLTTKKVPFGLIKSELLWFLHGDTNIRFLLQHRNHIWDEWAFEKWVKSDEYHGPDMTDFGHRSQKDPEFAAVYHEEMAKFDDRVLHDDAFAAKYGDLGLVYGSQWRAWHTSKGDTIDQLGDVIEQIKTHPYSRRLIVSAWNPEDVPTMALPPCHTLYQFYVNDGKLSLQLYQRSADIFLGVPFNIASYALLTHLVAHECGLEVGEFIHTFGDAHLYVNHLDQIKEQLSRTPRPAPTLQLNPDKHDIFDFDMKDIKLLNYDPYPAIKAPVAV

[1] = biological target: T3, rHuTS (recombinant human thymidylate synthase) (Homo sapiens, UniProt P04818); experiment: Enzyme kinetics of rHuTS with dUMP and BVdUMP; type: biochemical; conditions: rHuTS
T3 construct: His tag (from pET-28a(+)) (N); made in house; host or cells: E. coli BL21 (DE3)/pET-28a(+)
T3 sequence (P04818 whole entry): as the sequence (P04818 whole entry) above
Protocol: Enzyme Preparation. Cloned human thymidylate synthase plasmid pBCHTS was subcloned into E. coli. BL21 (DE3)/pET-28a(+) (Novagen) using the Ndel ñSacI insertion site, in order to add an amino terminal His tag. Enzyme was expressed in E. coli. by induction with IPTG, and purified by affinity chromatography on a Ni^2+ His Bind metal chelation resin (Novagen). The column Ni^2+ His Bind metal chelation column was washed with 20 mM Tris pH 7.9, 5 mM imidazole, 0.5M NaCl; thymidylate synthase activity was eluted with 20 mM Tris pH 7.9, 60 mM imidazole, 0.5M NaCl.
as §1
Enzyme kinetic constants (Km and Vmax) were determined for the human thymidylate synthase substrates dUMP and BVdUMP using the enzyme assay conditions described above. The initial rates of the enzyme reactions was determined by measuring the increase in A340 for the reaction with dUMP, and decrease in A294 for the reaction with BVdUMP. The catalytic efficiency of the enzyme (Kcat/Km) was calculated from the kinetic constants Km and Vmax.

MCF7TDX cells = experiment: 96-well combination cytotoxicity assay (crystal violet) with NB1011, MCF7TDX; type: cell-based, human; conditions: drug combined with NB1011, MCF7TDX; for CI (average combination index): 96-well crystal violet, 72 hour; for Interaction: key: Syn = synergy; Ant = antagonism; Add = additivity
Protocol: Cell lines: Normal human colon epithelial cells (CCD18co) and skin fibroblasts (Det55 1) were purchased from ATCC (Rockville,Md.). MCF7TDX, human breast carcinoma cells resistant to 2 μM Tomudex were obtained from Dr. Patrick Johnston, Queens University, Belfast.
The medium was renewed or the cells were passaged about every three days to maintain optimal growth conditions. Normal cells were passaged a maximum of 15 times to avoid senescence.
Cytotoxicity Studies: 384-well interaction screening assay. 500 cells per well were transferred to a 384-well tissue culture plate (Corning Inc., Corning, N.Y.) and allowed to attach for 24 hours in standard culture conditions. […] 96-well combination cytotoxicity assay. […] Compounds were then applied in duplicate half log serial dilutions. Each compound was tested separately, and mixed together at a single molar ratio approximately equal to the ratio of the individual IC50 values. After an additional 72 hour incubation, cells were washed once with PBS and stained with 0.5% crystal violet in methanol. Plates were washed gently in water to remove unbound stain and allowed to dry overnight. […] Sigmoid curves were fit according to the Hill inhibitory Emax model, and IC50 calculated as the average of three or more separate determinations. […] Briefly, the ICso and the slope parameter (m) for each agent alone were determined from the median effect plot, an x,y plot of log(D) vs log (fa/fu) based on Chou's median effect equation: fa/fu=(D/Dm)^m [Equation 1]
(§2) Only experiments with linear correlation coefficients (r) >0.9 were accepted for analysis. A combination index (CI) was then calculated to assess synergism or antagonism according to the following equation which assumes an independent mechanism of drug action (mutual exclusivity): CI=(D)1/(Dx)1+(D)2/(Dx)2+(D)1(D)2/(Dx)1 (Dx)2 [Equation 2]
(§3) where (D)1 and (D)2 are the concentrations of drug 1 and drug 2 which combined produce x% inhibition, and (Dx)1 and (Dx)2 are the concentrations of each drug which alone produce x% inhibition. CI=1 indicates an additive interaction, CI<1 indicates synergy, and CI>1 indicates antagonism. For each experiment Cl's from several different effect levels and concentrations of a constant molar ratio were averaged.

[2] = system: CCD18co normal colon epithelial cells; experiment: 96-well combination cytotoxicity assay (crystal violet) with NB1011, CCD18co; type: cell-based, human; conditions: drug combined with NB1011, CCD18co; for CI (average combination index): 96-well crystal violet, 72 hour
Protocol: (§4) Cell lines: Normal human colon epithelial cells (CCD18co) and skin fibroblasts (Det55 1) were purchased from ATCC (Rockville,Md.). MCF7TDX, human breast carcinoma cells resistant to 2 μM Tomudex were obtained from Dr. Patrick Johnston, Queens University, Belfast. […] The MCF7TDX and the H630R10 cell lines have been previously described in Drake, J. C. et al. (1996) and Copur, S. et al. (1995) respectively.
(§5) Culture Conditions: All cells were cultured under standard conditions of 37° C., 95% humidified air, 5% CO2 in RPMI 1640 culture medium containing 10% fetal calf serum (Life Technologies) and penicillin/streptomycin/fungizone. […] The medium was renewed or the cells were passaged about every three days to maintain optimal growth conditions. Normal cells were passaged a maximum of 15 times to avoid senescence.
(§6) Cytotoxicity Studies: 384-well interaction screening assay. 500 cells per well were transferred to a 384-well tissue culture plate (Corning Inc., Corning, N.Y.) and allowed to attach for 24 hours in standard culture conditions. Compounds were then applied in a bidirectional (checker board) pattern (Chou, T. C. and Talalay, P. (1984)). Following a 5-day incubation, the redox indicator dye, alamarBlue (AccuMed International, Westlake, Ohio) was added to each well at a 10% v/v ratio, and fluorescence was monitored at 535 excitation, 595 emission. Cytotoxic effect levels and drug interactions were assessed by the combination index method (Chou, T. C. and Talalay, P. (1984) and Bible, K. C. et al. (1997)), described briefly below. 96-well combination cytotoxicity assay. Exponentially growing cells were transferred at a density of 1.0-5.5×10^3 cells per well to a 96-well tissue culture plate and allowed to attach for 24 hours. Compounds were then applied in duplicate half log serial dilutions. Each compound was tested separately, and mixed together at a single molar ratio approximately equal to the ratio of the individual IC50 values. After an additional 72 hour incubation, cells were washed once with PBS and stained with 0.5% crystal violet in methanol. Plates were washed gently in water to remove unbound stain and allowed to dry overnight. […] Sigmoid curves were fit according to the Hill inhibitory Emax model, and IC50 calculated as the average of three or more separate determinations. Where applicable, the combination index for multiple drug effects was calculated according to the median-effect principle (Chou, T. C. and Talalay, P. (1984)) using the CalcuSyn software from Biosoft (Ferguson, Mo.). Briefly, the ICso and the slope parameter (m) for each agent alone were determined from the median effect plot, an x,y plot of log(D) vs log (fa/fu) based on Chou's median effect equation: fa/fu=(D/Dm)^m [Equation 1]
as §2, §3

[3] = system: Det551 normal skin fibroblasts; experiment: 96-well combination cytotoxicity assay (crystal violet) with NB1011, Det551; type: cell-based, human; conditions: for Interaction: drug combined with NB1011, Det551; for CI (average combination index): drug combined with NB1011, Det551, 96-well crystal violet, 72 hour; for Interaction: key: Syn = synergy; Ant = antagonism; Add = additivity
Protocol: as §4, §5, §6, §2, §3

[4] = BVdUMP reaction, read-out: Kl (of dUMP)

Cc1nc2ccc(CN(C)c3ccc(C(=O)N[C@@H](CCC(=O)O)C(=O)O)s3)cc2c(=O)[nH]1 [Tomudex]
initial rate of rHuTS reaction with inhibitor (rHuTS; BVdUMP + THF): 67 ± 3 RFU/min | initial rate of rHuTS reaction with inhibitor (rHuTS; BVdUMP − THF): 34 ± 3 RFU/min | initial rate of rHuTS reaction with inhibitor (rHuTS; dUMP + THF): 690 ± 40 nmol/min

O=c1[nH]c(=O)n([C@H]2C[C@H](O)[C@@H](COP(=O)(O)O)O2)cc1F [5-FdUMP]
initial rate of rHuTS reaction with inhibitor (rHuTS; BVdUMP + THF): 44 ± 2 RFU/min | rate as % of No Inhibitor (rHuTS; BVdUMP + THF): (40%) | initial rate of rHuTS reaction with inhibitor (rHuTS; BVdUMP − THF): 93 ± 13 RFU/min | rate as % of No Inhibitor (rHuTS; BVdUMP − THF): (129%) | initial rate of rHuTS reaction with inhibitor (rHuTS; dUMP + THF): 290 ± 70 nmol/min | rate as % of No Inhibitor (rHuTS; dUMP + THF): (19%)

O=c1ccn([C@H]2C[C@H](O)[C@@H](COP(=O)(O)O)O2)c(=O)[nH]1 [dUMP]
initial rate of rHuTS reaction, No Inhibitor (rHuTS; dUMP + THF, 30° C., increase in A340): 1500 ± 20 nmol/min | Ki (Lactobacillus casei TS; [4]): 2 µM | Kcat (Lactobacillus casei TS): 6.4 s⁻¹ | Km (Lactobacillus casei TS; substrate): 3 µM | Kcat [1]: 0.2 s⁻¹ | form of inhibition of the BVdUMP reaction (Michaelis-Menton kinetics) [1]: competitive inhibition | Ki [1, 4]: 17.5 µM | Km ([1]; substrate): 7.7 µM

CC[C@]1(O)C[C@@H]2CN(CCc3c([nH]c4ccccc34)[C@@](C(=O)OC)(c3cc4c(cc3OC)N(C)[C@H]3[C@@](O)(C(=O)OC)[C@H](OC(C)=O)[C@]5(CC)C=CCN6CC[C@]43[C@@H]65)C2)C1 [Vinblastine]
Interaction (MCF7TDX cells): Ant | Interaction [2]: Syn | Interaction [3]: Syn

OCCN(CCO)c1nc(N2CCCCC2)c2nc(N(CCO)CCO)nc(N3CCCCC3)c2n1 [Dipyridamole, dipyridamole]
Interaction (MCF7TDX cells): Syn | CI (average combination index) (MCF7TDX cells): 0.51 | Interaction [2]: Ant | CI (average combination index) [2]: 1.30 | Interaction [3]: Add | CI (average combination index) [3]: 1.17

COc1cccc2c1C(=O)c1c(O)c3c(c(O)c1C2=O)C[C@@](O)(C(=O)CO)C[C@@H]3O[C@H]1C[C@H](N)[C@H](O)[C@H](C)O1 [Doxorubicin]
Interaction (MCF7TDX cells): Ant

O=[N+]([O-])c1ccc(CSc2ncnc3c2ncn3C2OC(CO)C(O)C2O)cc1 (stereo not shown) [p-Nitrobenzyl-Thioinosine (NBMPR), p-nitrobenzylthioinosine]
Interaction (MCF7TDX cells): Syn | CI (average combination index) (MCF7TDX cells): 0.57 | Interaction [2]: Ant | CI (average combination index) [2]: 3.93 | Interaction [3]: Ant | CI (average combination index) [3]: 1.43

O=C1[O][Pt]2([NH][C@@H]3CCCC[C@H]3[NH]2)[O]C1=O [Oxaliplatin]
Interaction (MCF7TDX cells): Ant
